Assay results as given in patent US20080280994A1, “Ascophyllum Compositions and Methods” (OCEAN NUTRITION CANDA LTD., priority 2004, published 2008).

How the values were obtained:
[1] = system: STZ-diabetic mice (KunMing strain); experiment: 4-week treatment study in streptozotocin-induced diabetic mice; assay type: in vivo
Method: Animal Model. […] Diabetes was induced in mice with a single injection of streptozotocin (STZ). After fasting for 12 hrs, male mice with body weight above 20 g were given STZ dissolved in sodium citrate buffer via tail vein at a dose of 110 mg/kg body weight. […] Diabetic animals were divided into 5 groups (10 mice per group). Of these, 3 groups were treated with test samples, one group was a control group, receiving vehicle alone, and one group received metformin, an oral anti-diabetic agent. A sixth group, consisting of non-diabetic mice, was also included for comparison. They were treated with vehicle alone. Mice were housed 5 to a cage with free access to food and water. Test Samples and Dose. A. nodosum samples tested were as follows: 1) crude extract, CE 2) polyphenolic fraction, PPF 3) polysaccharide fraction, PSF Samples were dissolved in carboxymethylcellulose (CMC; 0.5%). Test sample solutions were prepared every morning at a concentration of 20 mg/ml in distilled water and given via gavage at a volume of 0.2 mL/20 g BW to deliver a dose of 200 mg/kg body weight. The control groups were gavaged with distilled water (0.2 mL/20 g BW). […] Animals were treated daily for 4 weeks. Measurements.

STZ-diabetic mice = experiment: Sucrose challenge in diabetic mice; assay type: in vivo
Method: Animal model. Mice were made diabetic as described above and were allotted to eight groups (10 animals per group) as follows: […] Treatment and Measurement. Test samples were prepared at appropriate concentrations so that the required doses were delivered in a volume of 0.2 mL/20 g body weight. Acarbose was also dissolved in 0.5% CMC ([…]) and given at a dose of 25 mg/kg BW. Ten minutes after gavaging of samples, blood was sampled from tail vein for glucose measurement (Time 0). The animals were then gavaged with sucrose (20% in water at a dose of 2 g/kg body weight). […] A group of non-diabetic mice were given an equivalent volume of saline (0.2 ml/20 g BW).

[2] = STZ-diabetic mice, Day 28, dose 200 mg/kg, mean ± S.D.
[3] = STZ-diabetic mice, daily gavage, printed dose 200 mg/kg, mean ± S.D.
[4] = sucrose challenge, acarbose-treated mice

**Q.** With `CN(C)C(=N)N=C(N)N` [Metformin, metformin] as the compound, how does the “serum glucose versus STZ-diabetic mice (in words)” value ([1]; 4-week treatment, P<0.05) read?
**A.** significantly lower serum glucose at each of the time points

**Q.** What about the “blood total antioxidant level (in words)” value ([1]; Day 28) of the same compound?
**A.** significant increases in antioxidant activity

**Q.** And the “glycated Hb versus STZ-diabetic mice (in words)” value ([1]; Day 28)?
**A.** reduced

**Q.** And the “total cholesterol versus STZ-diabetic mice (in words)” value ([1]; Day 28)?
**A.** reduced

**Q.** And the “liver glycogen level (in words)” value ([1]; Day 28, STZ-diabetic mice)?
**A.** significantly increased liver glycogen level

**Q.** What about the “AntIoxidant activity (U/ml serum)” value [1, 2] of the same compound?
**A.** 8.15 ± 1.8 U/ml serum

**Q.** What about the “Glycated Hb” value [1, 2] of the same compound?
**A.** 5.22 ± 0.5 mmol/L

**Q.** And the “Liver glycogen (mg/g wet tissue)” value [1, 2]?
**A.** 5.51 ± 0.8 mg/g wet tissue

**Q.** What about the “Total Cholesterol” value [1, 2] of the same compound?
**A.** 1.93 ± 0.7 mmol/L

**Q.** And the “Blood glucose (mM) Day 7” value [1, 3]?
**A.** 13.04 ± 5.8 mM

**Q.** What about the “Blood glucose (mM) Day 14” value [1, 3] of the same compound?
**A.** 11.60 ± 4.1 mM

**Q.** What about the “Blood glucose (mM) Day 21” value [1, 3] of the same compound?
**A.** 12.38 ± 4.7 mM

**Q.** And the “Blood glucose (mM) Day 28” value [1, 3]?
**A.** 13.59 ± 7.7 mM

**Q.** What about the “Blood glucose (mM) Day 0” value ([1]; STZ-diabetic mice, start of treatment period, mean ± S.D.) of the same compound?
**A.** 13.50 ± 2.5 mM

**Q.** For `C[C@H]1O[C@H](O[C@H]2[C@H](O)[C@@H](O)[C@@H](O[C@H]3[C@H](O)[C@@H](O)C(O)O[C@@H]3CO)O[C@@H]2CO)[C@H](O)[C@@H](O)[C@@H]1N[C@H]1C=C(CO)[C@@H](O)[C@H](O)[C@H]1O` (stereo partly drawn) [Acarbose, acarbose], which “serum glucose level, 0 min” value (STZ-diabetic mice; sucrose challenge 2 g/kg, dose 25 mg/kg, 0 min) is on record?
**A.** 15.64 ± 2.6 mmol/L

**Q.** And the “serum glucose level, 10 min” value (STZ-diabetic mice; sucrose challenge 2 g/kg, dose 25 mg/kg, 10 min)?
**A.** 21.71 ± 3.6 mmol/L

**Q.** And the “serum glucose level, 30 min” value (STZ-diabetic mice; sucrose challenge 2 g/kg, dose 25 mg/kg, 30 min)?
**A.** 24.67 ± 4.1 mmol/L

**Q.** What about the “serum glucose level, 60 min” value (STZ-diabetic mice; sucrose challenge 2 g/kg, dose 25 mg/kg, 60 min) of the same compound?
**A.** 19.80 ± 4.8 mmol/L

**Q.** What about the “serum glucose level, 120 min” value (STZ-diabetic mice; sucrose challenge 2 g/kg, dose 25 mg/kg, 120 min) of the same compound?
**A.** 14.29 ± 2.9 mmol/L

**Q.** And the “area-under-the-curve (AUC) for glucose” value (STZ-diabetic mice; [4])?
**A.** 2340 units (mmol/L×120 min.)

**Q.** What about the “reduction of glucose AUC versus STZ-mice” value (STZ-diabetic mice; [4]) of the same compound?
**A.** 33%
